From patent US7829560B2, “1,4-disubstituted naphthalenes as inhibitors of P38 MAP kinase” (Arqule, Inc., priority 2004, dated 2010)

Key:
[1] = molecular target: T1, p38α (Homo sapiens, UniProt Q16539); assay: p38 MAP Kinase assay: inhibition of ATF2 phosphorylation, ELISA; assay type: biochemical; details: for IC50: ATF2 phosphorylation, read-out: [ENZ] P38 ALPHA, IC50, ELISA; for inhibition at 10 µM: substrate ATF2, read-out: [ENZ] P38 ALPHA, PCT INH, ELISA (10 uM;ATF2) (Percent)
T1 construct: p38 MAP Kinases are recombinant human full-length proteins with an amino-terminal GST fusion; GST (N); purchased Upstate Biotechnology Inc; host or cells: E. coli
T1 sequence (Q16539 whole entry, the tested form may be a part): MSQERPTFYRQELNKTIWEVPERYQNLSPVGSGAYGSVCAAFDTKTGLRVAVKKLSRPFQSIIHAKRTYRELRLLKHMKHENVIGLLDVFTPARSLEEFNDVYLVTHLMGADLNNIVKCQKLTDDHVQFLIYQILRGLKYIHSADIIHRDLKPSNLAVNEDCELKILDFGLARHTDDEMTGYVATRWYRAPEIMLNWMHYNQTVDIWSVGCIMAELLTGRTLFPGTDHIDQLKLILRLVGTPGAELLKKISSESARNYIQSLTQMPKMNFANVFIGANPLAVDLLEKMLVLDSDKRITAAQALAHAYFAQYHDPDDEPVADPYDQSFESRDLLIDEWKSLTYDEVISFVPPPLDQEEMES
Procedure, shortened: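 In vitro phosphorylation of ATF2 at Thr69 by recombinant human GST-p38 MAP kinase, read by anti-phospho-ATF2 ELISA at 450 nm. Enzyme and compound pre-incubated 15 min at RT, then 30 min reaction at 37 °C with 40 μM ATP and 1.25 μM ATF2; buffer with or without 1% HSA (Method II or I).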

[2] = system: TNFα release from THP-1 cells; assay: Inhibition of TNFα release from LPS-stimulated THP-1 cells, ELISA; assay type: cell-based; details: Homo sapiens, THP-1, THP-1 cells, read-out: [CELL] THP-1, IC50, TNF ALPHA, ELISA
Procedure, shortened: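 TNFα released into supernatant after 18 h of 10 μg/ml LPS stimulation was quantified by ELISA and IC50 taken as 50% reduction by non-linear regression. THP-1 cells (10^6/ml; medium with 10% FBS, serum-free or 1% HSA) saw compound for 30 min at 37 °C beforehand; final DMSO ≤0.5%.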

| IC50 [1] | IC50 [2] | melting point | inhibition at 10 µM [1] | SMILES |
| --- | --- | --- | --- | --- |
| 112 nM | 6050 nM | 150 to 151 °C | – | O=C(Nc1ccc(OCCN2CCOCC2)c2ccccc12)c1cc(F)cc(N2CCCCC2)c1 [Compound B66, 3-Fluoro-N-[4-(2-morpholin-4-ylethoxy)-1-naphthyl]-5-piperidin-1-ylbenzamide] |
| 620 nM | 9080 nM | 142 to 144 °C | 85% | O=C(Nc1ccc(OCCN2CCOCC2)c2ccccc12)c1cc(F)cc(N2CCCCCC2)c1 [Compound B67, 3-Azepan-1-yl-5-fluoro-N-[4-(2-morpholin-4-ylethoxy)-1-naphthyl]benzamide] |
| 1100 nM | > 10000 nM | 70 to 72 °C | 84% | O=C(Nc1ccc(OCCCN2CCOCC2)c2ccccc12)c1cc(F)cc(N2CCCCC2)c1 [Compound B161, 3-Fluoro-N-[4-(3-morpholin-4-yl-propoxy)-naphthalen-1-yl]-5-piperidin-1-yl-benzamide] |
| 1110 nM | > 10000 nM | 90 to 92 °C | – | O=C1CN(CCCOc2ccc(NC(=O)c3cc(F)cc(N4CCCCC4)c3)c3ccccc23)CCN1 [Compound B175, 3-Fluoro-N-{4-[3-(3-oxo-piperazin-1-yl)-propoxy]-naphthalen-1-yl}-5-piperidin-1-yl-benzamide] |
| 1060 nM | 2050 nM | 158 to 160 °C | – | COc1ccc(CCOc2ccc(NC(=O)c3cc(F)cc(N4CCCCC4)c3)c3ccccc23)cc1OC [Compound B179, N-{4-[2-(3,4-Dimethoxyphenyl)ethoxy]-1-naphthyl}-3-fluoro-5-piperidin-1-ylbenzamide] |
| 587 nM | > 10000 nM | 88 to 89 °C | – | O=C(Nc1ccc(OCCCN2CCCC2=O)c2ccccc12)c1cc(F)cc(N2CCCCC2)c1 [Compound B182, 3-Fluoro-N-{4-[3-(2-oxopyrrolidin-1-yl)propoxy]-1-naphthyl}-5-piperidin-1-ylbenzamide] |
| 1140 nM | > 10000 nM | 70 to 72 °C | – | O=C(Nc1ccc(OCCCN2CCNCC2)c2ccccc12)c1cc(F)cc(N2CCCCC2)c1 [Compound B183, 3-Fluoro-N-[4-(3-piperazin-1-yl-propoxy)-naphthalen-1-yl]-5-piperidin-1-yl-benzamide] |
| 441 nM | 2610 nM | 73 to 75 °C | – | COc1ccc(CCOc2ccc(NC(=O)c3cc(F)cc(N4CCOCC4)c3)c3ccccc23)cc1OC [Compound B189, N-{4-[2-(3,4-Dimethoxyphenyl)ethoxy]-1-naphthyl}-3-fluoro-5-morpholin-4-ylbenzamide] |
| 826 nM | 7520 nM | 80 to 82 °C | – | O=C(Nc1ccc(OCCc2cccnc2)c2ccccc12)c1cc(F)cc(N2CCOCC2)c1 [Compound B190] |

More lines, now with the values behind:

| SMILES | IC50 [1] | IC50 [2] | melting point | inhibition at 10 µM [1] |
| --- | --- | --- | --- | --- |
| N#Cc1ccc(C(=O)Nc2ccc(OCCN3CCOCC3)c3ccccc23)cc1 [Compound B36, 4-Cyano-N-[4-(2-morpholin-4-ylethoxy)-1-naphthyl]benzamide] | 5090 nM | 6620 nM | 213 to 214 °C | – |
| O=C(Nc1ccc(OCCN2CCOCC2)c2ccccc12)c1cccc(N2CCCCC2)c1 [Compound B48, N-[4-(2-Morpholin-4-yl-ethoxy)-naphthalen-1-yl]-3-piperidin-1-yl-benzamide] | 464 nM | 7650 nM | 147 to 148 °C | – |
| O=C(Nc1ccc(OCCN2CCOCC2)c2ccccc12)c1ccc2snnc2c1 [Compound B50, N-[4-(2-Morpholin-4-ylethoxy)-1-naphthyl]-1,2,3-benzothiadiazole-5-carboxamide] | 1240 nM | 9180 nM | 188 to 190 °C | – |
| O=C(Nc1ccc(OCCN2CCOCC2)c2ccccc12)c1cc(N2CCOCC2)ncn1 [Compound B54, 6-Morpholin-4-yl-pyrimidine-4-carboxylic acid [4-(2-morpholin-4-yl-ethoxy)-naphthalen-1-yl]-amide] | > 10000 nM | > 10000 nM | 50 to 51 °C | – |
| O=C(Nc1ccc(OCCN2CCOCC2)c2ccccc12)c1cccc(-n2cccc2)c1 [Compound B57, N-[4-(2-Morpholin-4-yl-ethoxy)-naphthalen-1-yl]-3-pyrrol-1-yl-benzamide] | 1190 nM | 2650 nM | 142 to 143 °C | – |
| O=C(Nc1ccc(OCCN2CCOCC2)c2ccccc12)c1cccc(-c2cccnc2)c1 [Compound B58, N-[4-(2-Morpholin-4-yl-ethoxy)-naphthalen-1-yl]-3-pyridin-3-yl-benzamide] | 8810 nM | > 10000 nM | 77 to 78 °C | – |
| COc1cccc(C(=O)Nc2ccc(OCCN3CCOCC3)c3ccccc23)c1 [Compound B60, 3-Methoxy-N-[4-(2-morpholin-4-ylethoxy)-1-naphthyl]benzamide] | 7810 nM | > 10000 nM | 105 to 107 °C | – |
| CC(C)(C)Oc1cccc(C(=O)Nc2ccc(OCCN3CCOCC3)c3ccccc23)c1 [Compound B65, 3-tert-Butoxy-N-[4-(2-morpholin-4-yl-ethoxy)-naphthalen-1-yl]-benzamide] | 614 nM | 3420 nM | 50 to 51 °C | – |
| CC(=O)N1CCN(CCCOc2ccc(NC(=O)c3cc(F)cc(N4CCCCC4)c3)c3ccccc23)CC1 [Compound B165, N-{4-[3-(4-Acetyl-piperazin-1-yl)-propoxy]-naphthalen-1-yl}-3-fluoro-5-piperidin-1-yl-benzamide] | 997 nM | > 10000 nM | 210 to 211 °C | 84% |
| O=C(Nc1ccc(OCCN2CCOCC2)c2ccccc12)c1cccc(N2CCOCC2)c1 [Compound B169, 3-Morpholin-4-yl-N-[4-(2-morpholin-4-yl-ethoxy)-naphthalen-1-yl]-benzamide] | 2070 nM | 1330 nM | 90 to 92 °C | 77.5% |
| CC1CCN(c2cc(F)cc(C(=O)Nc3ccc(OCCN4CCOCC4)c4ccccc34)c2)CC1 [Compound B184, 3-Fluoro-5-(4-methylpiperidin-1-yl)-N-[4-(2-morpholin-4-ylethoxy)-1-naphthyl]benzamide] | 1070 nM | 6990 nM | 116 to 118 °C | – |
| CCC1CCC(Oc2cc(F)cc(C(=O)Nc3ccc(OCCN4CCOCC4)c4ccccc34)c2)CC1 (centres unmarked) [Compound B194, 3-[(4-Ethylcyclohexyl)oxy]-5-fluoro-N-[4-(2-morpholin-4-ylethoxy)-1-naphthyl]benzamide] | 9280 nM | > 10000 nM | 102 to 105 °C | – |
| O=C(Nc1ccc(OCCN2CCOCC2)c2ccccc12)c1cc(F)cc(OC2CCCCC2)c1 [Compound B195, 3-(Cyclohexyloxy)-5-fluoro-N-[4-(2-morpholin-4-ylethoxy)-1-naphthyl]benzamide] | 413 nM | > 10000 nM | 116 to 118 °C | – |
| CC1CCCN(c2cc(F)cc(C(=O)Nc3ccc(OCCN4CCOCC4)c4ccccc34)c2)C1 (centres unmarked) [Compound B202, 3-Fluoro-5-(3-methylpiperidin-1-yl)-N-[4-(2-morpholin-4-ylethoxy)-1-naphthyl]benzamide] | 291 nM | 9330 nM | 145 to 148 °C | – |
| CCN(C)c1cc(F)cc(C(=O)Nc2ccc(OCCN3CCOCC3)c3ccccc23)c1 [Compound B207, 3-[Ethyl(methyl)amino]-5-fluoro-N-[4-(2-morpholin-4-ylethoxy)-1-naphthyl]benzamide] | 1120 nM | > 10000 nM | 126 to 128 °C | – |
| CC1CCCN1c1cc(F)cc(C(=O)Nc2ccc(OCCN3CCOCC3)c3ccccc23)c1 (centres unmarked) [Compound B208, 3-Fluoro-5-(2-methylpyrrolidin-1-yl)-N-[4-(2-morpholin-4-ylethoxy)-1-naphthyl]benzamide] | 167 nM | 3640 nM | 108 to 111 °C | – |
| CC(C)CN(C)c1cc(F)cc(C(=O)Nc2ccc(OCCN3CCOCC3)c3ccccc23)c1 [Compound B210, 3-Fluoro-5-[isobutyl(methyl)amino]-N-[4-(2-morpholin-4-ylethoxy)-1-naphthyl]benzamide] | 1300 nM | > 10000 nM | 126 to 128 °C | – |
| CCn1c(COc2ccc(NC(=O)c3cc(F)cc(N4CCC(C)CC4)c3)c3ccccc23)n[nH]c1=O [Compound B220, N-[4-(4-Ethyl-5-oxo-4,5-dihydro-1H-[1,2,4]triazol-3-ylmethoxy)-naphthalen-1-yl]-3-fluoro-5-(4-methyl-piperidin-1-yl)-benzamide] | 145 nM | 2870 nM | 240 to 241 °C | – |
| CCC1CCC(Oc2cc(F)cc(C(=O)Nc3ccc(OCc4ccncc4)c4ccccc34)c2)CC1 (centres unmarked) [Compound B228, 3-[(4-Ethylcyclohexyl)oxy]-5-fluoro-N-[4-(pyridin-4-ylmethoxy)-1-naphthyl]benzamide] | > 10000 nM | – | 93 to 95 °C | – |
| O=C(Nc1ccc(Oc2ccnc(N3CCCC3)n2)c2ccccc12)c1cc(F)cc(N2CCCCC2)c1 [Compound B377, 3-Fluoro-piperidin-1-yl-N-{4-[(2-pyrrolidin-1-ylpyrimidin-4-yl)oxy]-1-naphthyl}benzamide] | – | 515 nM | 111 to 113 °C | – |
